Experimental data: EP4603105A1, “PHARMACEUTICAL COMPOSITION CONTAINING CYCLIC COMPOUND HAVING SELECTIVE KRAS INHIBITORY EFFECT AGAINST HRAS AND NRAS” (CHUGAI SEIYAKU KABUSHIKI KAISHA, priority 2022, dated 2024)
*1 amine or outer side, *2 acyl side, *3 side chain or, on linkers, in order; H or OH if unused. Where a SMILES comes first, the peptide text is derived from it. Bridges are numbered along the chain shown (N, C = ends). [ ]: non-standard residue; d: D form. The star is where a group is joined. hPhe(3-Cl-4-CF3) = N[C@@H](CCc1ccc(C(F)(F)F)c(Cl)c1)C(=O)O; X34 = COCCN([C@@H](Cc1ccc(C(F)(F)F)cc1)C(=O)[*:2])[*:1]; NPrPhe(4-CF3) = CCCN[C@@H](Cc1ccc(C(F)(F)F)cc1)C(=O)O; NMeGly(cPent) = CN[C@H](C(=O)O)C1CCCC1; Pro(4,4-F2) = O=C(O)[C@@H]1CC(F)(F)CN1; Pro(4S-Me) = C[C@@H]1CN[C@H](C(=O)O)C1; Hyp = O=C(O)[C@@H]1C[C@@H](O)CN1; Gly(cBu) = N[C@H](C(=O)O)C1CCC1; NMeD = CN[C@@H](CC(=O)O)C(=O)O; NMeL = CN[C@@H](CC(C)C)C(=O)O; Morpholide = C1CN(*)CCO1; NMeA = CN[C@@H](C)C(=O)O; Ac5c = NC1(C(=O)O)CCCC1; Aze = O=C(O)[C@@H]1CCN1; NEtG = CCNCC(=O)O; Sar = CNCC(=O)O

Columns and labels:
[1] = molecular target: GDP-bound NRAS wild-type protein (Homo sapiens, UniProt P01111); assay: Binding to NRAS by surface plasmon resonance (SPR), KD and KD ratio to KRAS
Method in brief: (§1)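 GDP-loaded biotinylated Avi-tag RAS proteins (E. coli-expressed) captured on a Biotin CAPture chip at ~100–300 RU; single-cycle kinetics at 30°C, 100 µL/min, 75 s injections of rising compound concentrations. HBS pH 7.4 running buffer with 1 mM DTT, 10 mM MgCl2, 10 µM GDP, 4% DMSO. KD from 1:1 binding fit.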

[2] = tested on: human lung cancer strain NCI-H441; format: cell-based
Method in brief: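 Readout: […] after the ATP-based reagent. Compound: serial dilutions in dimethyl sulfoxide.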

HRAS wild-type protein = HRAS wild-type protein (Homo sapiens, UniProt P01112); assay: Binding to HRAS by surface plasmon resonance (SPR), KD and KD ratio to KRAS
Method in brief: as §1

[3] = ratio of the KD value with respect to GDP-bound NRAS wild-type protein to the KD value with respect to KRAS
[4] = ratio of the KD value with respect to HRAS wild-type protein to the KD value with respect to KRAS
[5] = ratio of KD for GDP-bound NRAS wild-type protein to KD for KRAS
[6] = ratio of KD for HRAS wild-type protein to KD for KRAS

Chain of GDP-bound NRAS wild-type protein (P01111 whole entry): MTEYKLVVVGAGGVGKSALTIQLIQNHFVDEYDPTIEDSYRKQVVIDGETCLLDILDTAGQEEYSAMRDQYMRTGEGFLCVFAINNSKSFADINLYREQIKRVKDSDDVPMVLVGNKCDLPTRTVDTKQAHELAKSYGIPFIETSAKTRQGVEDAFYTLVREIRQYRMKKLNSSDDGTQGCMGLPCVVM
Chain of HRAS wild-type protein (P01112 whole entry): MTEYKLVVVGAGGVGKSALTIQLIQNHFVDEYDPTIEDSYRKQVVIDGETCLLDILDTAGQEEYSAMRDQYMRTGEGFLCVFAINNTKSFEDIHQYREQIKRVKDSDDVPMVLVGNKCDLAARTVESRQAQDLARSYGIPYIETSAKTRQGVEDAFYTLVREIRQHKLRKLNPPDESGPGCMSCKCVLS

SMILES	IC50 [2] [nM]	NRAS /KRAS [1, 3]	HRAS /KRAS (HRAS wild-type protein; [4])	NRAS /KRAS [1, 5]	HRAS /KRAS (HRAS wild-type protein; [6])
CCCN1C(=O)CN(C)C(=O)CN(C)C(=O)[C@H]([C@@H](C)CC)NC(=O)[C@H](CC(C)C)N(C)C(=O)C[C@@H](C(=O)N2CCOCC2)N(C)C(=O)[C@H](C2CCCC2)N(C)C(=O)C2(CCCC2)NC(=O)[C@@H]2C[C@H](C)CN2C(=O)[C@H](CCc2ccc(C(F)(F)F)c(Cl)c2)NC(=O)CN(C)C(=O)[C@@H]1Cc1ccc(C(F)(F)F)cc1 [PP0447] ([NMeL]I[Sar][Sar][NPrPhe(4-CF3)][Sar][hPhe(3-Cl-4-CF3)][Pro(4S-Me)][Ac5c][NMeGly(cPent)][NMeD]-Morpholide; lactam N-11)	3.9	B (a compound having 3 or more and less than 10 is denoted as B)	C (A compound having a KD ratio of 0.1 or more and less than 3 is denoted as C)	–	–
CCCN1C(=O)CN(C)C(=O)CNC(=O)[C@H]([C@@H](C)CC)NC(=O)[C@H](CC(C)C)N(C)C(=O)C[C@@H](C(=O)N(C)C)NC(=O)[C@H](C2CCCC2)N(C)C(=O)C2(CCCC2)NC(=O)[C@@H]2C[C@@H](OCC)CN2C(=O)[C@H](CCc2ccc(C(F)(F)F)c(Cl)c2)NC(=O)CN(C)C(=O)[C@@H]1Cc1ccc(C(F)(F)F)cc1 [PP0365] ([NMeL]IG[Sar][NPrPhe(4-CF3)][Sar][hPhe(3-Cl-4-CF3)][Hyp](Et)[Ac5c][NMeGly(cPent)]D-NMe2; lactam N-11)	42.6	–	–	B (a compound having 3 or more and less than 10 is denoted as B)	B (a compound having 3 or more and less than 10 is denoted as B)
CCCN1C(=O)[C@@H]2CCN2C(=O)[C@H](C)N(C)C(=O)[C@H](C2CCC2)NC(=O)[C@H](CC(C)C)N(C)C(=O)C[C@@H](C(=O)N2CCOCC2)N(C)C(=O)[C@H](C2CCCC2)N(C)C(=O)C2(CCCC2)NC(=O)[C@@H]2CCCN2C(=O)[C@H](CCc2ccc(C(F)(F)F)c(Cl)c2)NC(=O)CN(C)C(=O)[C@@H]1Cc1ccc(C(F)(F)F)cc1 [PP0271] ([NMeL][Gly(cBu)][NMeA][Aze][NPrPhe(4-CF3)][Sar][hPhe(3-Cl-4-CF3)]P[Ac5c][NMeGly(cPent)][NMeD]-Morpholide; lactam N-11)	6.5	–	–	C (A compound having a KD ratio of 0.1 or more and less than 3 is denoted as C)	B (a compound having 3 or more and less than 10 is denoted as B)
CC[C@H](C)[C@@H]1NC(=O)[C@H](CC(C)C)N(C)C(=O)C[C@@H](C(=O)N2CCOCC2)N(C)C(=O)[C@H](C2CCCC2)N(C)C(=O)C2(CCCC2)NC(=O)[C@@H]2CCCN2C(=O)[C@H](CCc2cc(F)c(C(F)(F)F)c(F)c2)NC(=O)CN(C)C(=O)[C@H](Cc2ccc(C(F)(F)F)cc2)N2CCCC[C@@H](C2=O)N(C)C(=O)[C@H](C)NC1=O [PP0543]	41.5	B (a compound having 3 or more and less than 10 is denoted as B)	B (a compound having 3 or more and less than 10 is denoted as B)	–	–
CC[C@H](C)[C@@H]1NC(=O)[C@H](CC(C)C)N(C)C(=O)C[C@@H](C(=O)N2CCOCC2)N(C)C(=O)[C@H](C2CCCC2)N(C)C(=O)C2(CCCC2)NC(=O)[C@@H]2CCCN2C(=O)[C@H](CCc2ccc(C(F)(F)F)c(Cl)c2)NC(=O)CN(C)C(=O)[C@H](Cc2ccc(C(F)(F)F)cc2)N(CCOC)C(=O)[C@@H]2CCN2C(=O)[C@H](C)N(C)C1=O [PP0118] ([NMeL]I[NMeA][Aze][X34][Sar][hPhe(3-Cl-4-CF3)]P[Ac5c][NMeGly(cPent)][NMeD]-Morpholide; lactam N-11)	6	–	–	C (A compound having a KD ratio of 0.1 or more and less than 3 is denoted as C)	C (A compound having a KD ratio of 0.1 or more and less than 3 is denoted as C)
CCC[C@H]1C(=O)N[C@@H]([C@@H](C)CC)C(=O)N(C)CC(=O)N(C)[C@H]2C/C=C\CCN(C2=O)[C@@H](Cc2ccc(C(F)(F)F)cc2)C(=O)N(C)CC(=O)N[C@@H](CCc2cc(F)c(C(F)(F)F)c(F)c2)C(=O)N2C[C@H](OCC)C[C@H]2C(=O)N(C)C2(CCC2)C(=O)N(C)[C@@H](C2CCCC2)C(=O)N(C)[C@H](C(=O)N2CCCCC2)CC(=O)N1C [PP3118]	6.7	–	–	A (a compound having 10 or more and less than 20 is denoted as A)	B (a compound having 3 or more and less than 10 is denoted as B)

The remaining molecules from weak to strong by IC50 [2], led by results:

IC50 [2] [nM]	SMILES	NRAS /KRAS [1, 3]	HRAS /KRAS (HRAS wild-type protein; [4])	NRAS /KRAS [1, 5]	HRAS /KRAS (HRAS wild-type protein; [6])
1610	CCO[C@@H]1C[C@H]2C(=O)NC3(CCC3)C(=O)N(C)[C@@H](C3CCCC3)C(=O)N(CC)[C@H](C(=O)N3CCOCC3)CC(=O)N(C)[C@@H](CCc3ccccc3)C(=O)N[C@@H]([C@@H](C)CC)C(=O)N(C)CC(=O)N(C)[C@H]3CCCCCN(C3=O)[C@@H](Cc3ccc(C(F)(F)F)cc3)C(=O)N(C)CC(=O)N[C@@H](CCc3cc(F)c(C(F)(F)F)c(F)c3)C(=O)N2C1 [PP0953]	–	–	A (a compound having 10 or more and less than 20 is denoted as A)	A (a compound having 10 or more and less than 20 is denoted as A)
767	CC[C@H](C)[C@@H]1NC(=O)[C@H](COC)N(C)C(=O)C[C@@H](C(=O)N2CCOCC2)N(C)C(=O)[C@H](C2CCCC2)N(C)C(=O)C2(CCC2)NC(=O)[C@@H]2CCCN2C(=O)[C@H](CCc2cc(F)c(C(F)(F)F)c(F)c2)NC(=O)CN(C)C(=O)[C@H](Cc2ccc(C(F)(F)F)cc2)N2CCCCC[C@@H](C2=O)N(C)C(=O)[C@@H]2CCN2C1=O [PP0865]	–	–	B (a compound having 3 or more and less than 10 is denoted as B)	B (a compound having 3 or more and less than 10 is denoted as B)
633	CC[C@H](C)[C@@H]1NC(=O)[C@H](CC(C)C)N(C)C(=O)C[C@@H](C(=O)N2CCOCC2)N(C)C(=O)[C@H](C2CCCC2)N(C)C(=O)C2(CCCC2)NC(=O)[C@H](C)N(CC)C(=O)[C@H](CCc2cc(F)c(C(F)(F)F)c(F)c2)NC(=O)CN(C)C(=O)[C@H](Cc2ccc(C(F)(F)F)cc2)N2CCCCC[C@@H](C2=O)N(C)C(=O)CN(C)C1=O [PP0515]	B (a compound having 3 or more and less than 10 is denoted as B)	B (a compound having 3 or more and less than 10 is denoted as B)	–	–
49.1	CCCN1C(=O)CN(C)C(=O)CN(C)C(=O)[C@H]([C@@H](C)CC)NC(=O)[C@H](CC(C)C)N(C)C(=O)C[C@@H](C(=O)N2CCOCC2)N(C)C(=O)[C@H](C2CCCC2)N(C)C(=O)[C@@H](C)NC(=O)[C@@H]2CCCN2C(=O)[C@H](CCc2ccc(C(F)(F)F)c(Cl)c2)NC(=O)CN(C)C(=O)[C@@H]1Cc1ccc(C(F)(F)F)cc1 [PP0150] ([NMeL]I[Sar][Sar][NPrPhe(4-CF3)][Sar][hPhe(3-Cl-4-CF3)]P[dA][NMeGly(cPent)][NMeD]-Morpholide; lactam N-11)	–	–	B (a compound having 3 or more and less than 10 is denoted as B)	C (A compound having a KD ratio of 0.1 or more and less than 3 is denoted as C)
22.7	CCO[C@@H]1C[C@H]2C(=O)NC3(CCC3)C(=O)N(C)[C@@H](C3CCCC3)C(=O)N(C)[C@H](C(=O)N(C)C)CC(=O)N(C)[C@@H](CC)C(=O)N[C@@H]([C@@H](C)CC)C(=O)N(C)CC(=O)N(C)[C@H]3C/C=C\CCN(C3=O)[C@@H](Cc3ccc(C(F)(F)F)cc3)C(=O)N(C)CC(=O)N[C@@H](CCc3ccc(C(F)(F)F)c(Cl)c3)C(=O)N2C1 [PP0978]	–	–	A (a compound having 10 or more and less than 20 is denoted as A)	B (a compound having 3 or more and less than 10 is denoted as B)
19.9	CCO[C@@H]1C[C@H]2C(=O)NC3(CCC3)C(=O)N(C)[C@@H](C3CCCC3)C(=O)N(C)[C@H](C(=O)N3CCOCC3)CC(=O)N(C)[C@@H](C)C(=O)N[C@@H]([C@@H](C)CC)C(=O)N(C)CC(=O)N(C)[C@H]3CCCCCN(C3=O)[C@@H](Cc3ccc(C(F)(F)F)cc3)C(=O)N(C)CC(=O)N[C@@H](CCc3cc(F)c(C(F)(F)F)c(F)c3)C(=O)N2C1 [PP0474]	B (a compound having 3 or more and less than 10 is denoted as B)	B (a compound having 3 or more and less than 10 is denoted as B)	–	–
17.8	CC[C@H](C)[C@@H]1NC(=O)[C@H](C2CC2)N(C)C(=O)C[C@@H](C(=O)N(C)CC)N(C)C(=O)[C@H](C2CCCC2)N(C)C(=O)C2(CCC2)NC(=O)[C@@H]2C[C@H](C)CN2C(=O)[C@H](CCc2cc(F)c(C(F)(F)F)c(F)c2)NC(=O)CN(C)C(=O)[C@H](Cc2ccc(C(F)(F)F)cc2)N2CC/C=C\C[C@@H](C2=O)N(C)C(=O)CN(C)C1=O [PP2080]	A (a compound having 10 or more and less than 20 is denoted as A)	A (a compound having 10 or more and less than 20 is denoted as A)	–	–
6.5	CCCN1C(=O)CN(C)C(=O)CN(CC)C(=O)[C@H]([C@@H](C)CC)NC(=O)[C@H](CC(C)C)N(C)C(=O)C[C@@H](C(=O)N(C)C)N(C)C(=O)[C@H](C2CCCC2)N(C)C(=O)C2(CCCC2)NC(=O)[C@@H]2CC(F)(F)CN2C(=O)[C@H](CCc2ccc(C(F)(F)F)c(Cl)c2)NC(=O)CN(C)C(=O)[C@@H]1Cc1ccc(C(F)(F)F)cc1 [PP0425] ([NMeL]I[NEtG][Sar][NPrPhe(4-CF3)][Sar][hPhe(3-Cl-4-CF3)][Pro(4,4-F2)][Ac5c][NMeGly(cPent)][NMeD]-NMe2; lactam N-11)	B (a compound having 3 or more and less than 10 is denoted as B)	C (A compound having a KD ratio of 0.1 or more and less than 3 is denoted as C)	–	–
